Several values for one entry are separate records, joined by “and”; a condition that tells them apart may be missing. Identical values can stand only once.
Key:
[1] = test system: cultured human keratinocytes; assay: [3H]-thymidine incorporation and DNA content in cultured human keratinocytes; assay type: cell-based; conditions: for DNA content / thymidine incorporation: 24 hours of treatment, Cer 5 or 10 μM, FIG. 9
Protocol: To determine the ability of exogenous glucosylceramides (GlcCER) to stimulate epidermal proliferation, we applied various concentrations of GlcCER to cultural human keratinocytes (third passage). Keratinocytes were isolated from human neonatal foreskins by a modification of the method of Pittelkow, M. R. and Scott, R. E. ( (1986) Proc. Mayo Clin. 61:771-777) Cells were added to 100 mm plastic Petri dishes at a density of 1 to 2×10^4 cells/cm^2, and grown initially in 10mls of Keratinocyte Growth Medium (KGM) (Clonetics, San Diego, Calif.) with 0.07 mM calcium. The cultures were maintained at 35° C. under 5% CO2 in air, with medium changes performed three times weekly. After the cells reached 70%-80% confluence, they were switched to KGM medium containing 1.2 mM calcium, and harvested at one week post-confluence. GlcCER was added for the last 24 hours of culture and ^3H-thymidine (1 μCi/ml) was added one-to-three hours prior to harvesting of cells for measurement of DNA synthesis and DNA content. (Proksch, E., et al., J. Clin. Invest. 87:1668-1673 (1991).
Using the method described in Example 5, incorporation of [^3H]-thymidine and total DNA content were measured in cultured human keratinocytes (CHK) grown in serum-free keratinocyte growth medium (KGM) supplemented with 0.07 mM .calcium. Cultured cell were further supplemented as indicated, with ceramide (Cer; 5 or 10 μM), glucosylceramide (GlcCER; 1.25 or 2.5 μM), or a combination of ceramide and glucosylceramide (10 and 1.25 μM, respectively).
(§1) CHK cells were grown in serum-free KGM supplemented both with 0.07 mM calcium and 10 μM ceramide (CER). Increasing concentrations of glucosylceramide were added (2.5 to 10 μM), and both [^3H]-thymidine (1 μCi/ml) and [^14C]-leucine (1 μCi/ml) incorporation assays were performed.
CHK cells were grown (as in Example 6)in serum-free KGM (0.07 mM calcium) and supplemented with increasing concentrations of ceramide (CER) alone (dark bars), glucosylceramide (GlcCer) alone (back row), or the combination of ceramide (10 μM) with increasing glucosylceramide (front row). […] Glucosylceramide alone again stimulated thymidine incorporation (>20%) at low concentrations (1.25 and 2.5 μM).
CHK cells were grown (as in Example 6) in serum-free KGM ([…]) supplemented with glucosylceramide (GlcCER) alone, or in combination with the β-glucocerebrosidase-inhibitor, CBE (3 or 10 μM) (FIG. 12). Incorporation of [^3H]-thymidine was measured at 24 hours following supplementation, and values are reported as percent of unsupplemented controls (mean ±S.D.; n>6). […] A low CBE concentration (3 μM) was ineffective.

[2] = test system: CHK cells; assay: [14C]-leucine incorporation in CHK cells; assay type: cell-based, human; conditions: GlcCER 2.5 and 5.0 μM with 10 μM ceramide; FIG. 10
Protocol: as §1

[3] = test system: murine epidermis; assay: Epidermal DNA synthesis, [3H]-thymidine incorporation in vivo; design: species or system mouse
Protocol: To assess the effects of a topical β-glucocerebrosidase inhibitor, conduritol-B-epoxide (CBE) in epidermal DNA synthesis two slightly different dosage protocols have been employed. In all cases, mice were treated topically with 20 μl to 40 μl of 250 nmol/μl CBE bid for 2-5 days on the right flank. On the last day, the mice were injected intraperitoneally with ^3H-thymidine (1 μCi/G body weight) diluted 1:10 in 100-200 μl isotonic NaCl. After one hour the mice were sacrificed. Whole skin was excised and subcutaneous fascia and fat were removed by scraped. Skin samples were placed dermis side downward onto 10 mM EDTA in phosphate buffered saline (PBS-CMF; pH 7.4) and incubated at 37° C. for 40 min. The skin was blotted dry with a tissue and epidermis removed by scraping with a surgical blade. The epidermis was minced into small pieces and placed in microcentrifuge vials. Samples were immediately snap frozen and stored in liquid nitrogen until immediately prior to preparation of the epidermal homogenates. 300 μl of 10 mM EDTA in PBS-CMF (pH 7.4) was added to all samples which then underwent tissue homogenization using Polytron (15 sec, ×2 on ice. Polytron tip was rinsed between each homogenization with 400 μl 10 mM EDTA in PBS-CMF. Rinses were combined with same original samples. Samples were sonicated twice for 10 sec on ice. 100 μl of 20% TCA was added and left for 10 min at 4° C. Samples were centrifuged at 2000×g at 4° C. for 5 min. The supernatant was discarded. 500 μl of 5% TCA was added and the samples were centrifuged at 2000×g at 4° C. for 5 min. The supernatant was discarded and this step was repeated again. The precipitate was resuspended in 1ml of 1N NaOH and vortexed. 400 μl or NaOH plus 400 μl of 1N HCl with 8ml Ecolume was used as a background blank. Vials were counted the following day.
We next determined whether the topical administration of structurally similar but less efficient β-glucosidase inhibitors would induce epidermal hyperproliferation. Animals were treated topically twice daily with either Conduritol-B-epoxide, Conduritol B (CB), or deoxynojirimycin (dNJM), each at 40 μl of 250 nmol/μl twice daily, as described in Example 10. After 24 hours, [^3H]-thymidine was injected intraperitoneally and incorporation of thymidine into DNA was determined (FIG. 26 A&B). […] This reduced activity is a result of the relative availability of these inhibitors to in vivo tissues.
Animals were treated as described in Example 10.
We next determined whether occlusion with a vapor-impermeable membrane would enhance the effects of a β-glucocerebrosidase inhibitor on epidermal DNA synthesis. […] After 24 hrs animals were injected with [^3H]-thymidine, and incorporation into DNA was determined (Proksch, et. al., J. Clin. Invest. 87:1668-1673, 1991).

[4] = test system: acetone treated skin sites; assay: Barrier recovery of acetone treated skin sites; assay type: in vivo, mouse; conditions: MUX 0.5 or 1.0 %(wt:vol) topical
[5] = GlcCER 1.25 μM, 24 hours, NHK cells, n=6±S.E.
[6] = direct application of lipid alone, treated as in Example 10, FIG. 26B
[7] = topical 40 μl of 250 nmol/μl twice daily, after 24 hours

glucosylceramide [GlcCER]
keratinocyte proliferation, further increase ([1]; 5 μM): No further increase
DNA content ([1]; GlcCER 1.25 μM): increased
thymidine incorporation ([1]; GlcCER 1.25 μM): increased
thymidine incorporation, increase over ceramide alone ([1]; GlcCER 1.25 μM co-administered with ceramide 10 μM, 24 hours): approximately 2 fold
DNA Content (% of Control) [1, 5]: 124 ± 2 % of Control and 111 ± 6 % of Control
^3H]-Thym. Incorporation (% of control) [1, 5]: 118 ± 0.5 % of control and 117 ± 2.0 % of control
override of the ceramide effect on thymidine incorporation ([1]; GlcCER 10 μM with 10 μM ceramide): did not override the ceramide effect
thymidine incorporation relative to ceramide-containing control ([1]; GlcCER 2.5 and 5.0 μM with 10 μM ceramide, FIG. 10): stimulated
concentration of maximum effect on keratinocyte proliferation ([1]; cultured human keratinocytes, 24 hours): 1.25 µM
inhibitory effect of ceramide on thymidine incorporation ([1]; glucosylceramide 1.25 μM coadministered with ceramide 10 μM): reversed
stimulation of thymidine incorporation ([1]; glucosylceramide alone, 1.25 and 2.5 μM): > 20%
proliferation rates ([1]; higher concentrations of GlcCER (above 1.25 and 2.5 μM)): decreased
leucine incorporation [2]: not altered
epidermal DNA synthesis, combination of GlcCER with CBE ([3]; FIG. 26B): additive effect
epidermal DNA synthesis ([3H]-thymidine incorporation) [3, 6]: significant increase

Cc1cc(=O)oc2cc(O[C@@H]3OC[C@@H](O)[C@H](O)[C@H]3O)ccc12 [MUX, 4-methylumbelliferyl xyloside]
barrier-disrupting effect [4]: comparable to the two conduritol is compounds (BrCBE and CBE)
barrier recovery ([4]; at 2, 4 and 6 hours): delayed barrier recovery

O[C@H]1[C@H](O)[C@@H](O)C=C[C@@H]1O [CB, Conduritol B]
epidermal DNA synthesis ([3H]-thymidine incorporation) [3, 7]: Neither CB or dNJM at this concentration induced an increase in DNA synthesis

galactosylceramide [GalCER]
epidermal DNA synthesis ([3H]-thymidine incorporation) [3, 6]: Neither GalCER nor ceramide (CER) alone at this concentration (c.f. structures in FIGS. 4 and 6) induced an increase

ceramide
DNA content ([1]; GlcCER 1.25 μM): corresponding decrease in DNA content
thymidine incorporation ([1]; GlcCER 1.25 μM): inhibited thymidine incorporation
[3H]-thymidine incorporation, of control ([1]; ceramide alone 10 μM, FIG. 11): 35 % of control
inhibition of [3H]-thymidine incorporation ([1]; ceramide alone 10 μM, FIG. 11): approximately 65%
epidermal DNA synthesis ([3H]-thymidine incorporation) [3, 6]: Neither GalCER nor ceramide (CER) alone at this concentration (c.f. structures in FIGS. 4 and 6) induced an increase

OC[C@H]1NC[C@H](O)[C@@H](O)[C@@H]1O [dNJM, deoxynojirimycin]
epidermal DNA synthesis ([3H]-thymidine incorporation) [3, 7]: Neither CB or dNJM at this concentration induced an increase in DNA synthesis

Source: patent publication US6399580B1, “Methods and compositions for stimulating tissue growth and epithelial moisturization” (The Regents of the University of California, priority 1994, dated 2002)
